Reference: US7307063B2, “Melanocortin metallopeptides for treatment of sexual dysfunction” (Palatin Technologies, Inc., priority 2001, dated 2007)
Non-standard residues stand in square brackets, D forms with d. No end group written: not given here. *: point of attachment. dBip = N[C@H](Cc1ccc(-c2ccccc2)cc1)C(=O)O; 2Nal = N[C@@H](Cc1ccc2ccccc2c1)C(=O)O; Heptanoyl = CCCCCCC(=O)*; Nle = CCCC[C@H](N)C(=O)O

What was measured:
[1] = molecular target: T1, hMC2-R (Homo sapiens, UniProt P41968); test: Competitive binding assay of additional compounds, Table 6 hMC2-R; settings: 1 μM, mean of triplicate
T1 construct: expressed in transfected cells; host or cells: HEK-293
Method: [The source words this procedure for another target and reports this target under the same test.] (§1) Rhenium-complexed metallopeptides of the formulas given in Table 1 were prepared, with the metallopeptides complexed with rhenium using the rhenium transfer agent ReOCl3(PPh3)2 in the presence of 1,8-Diazabicyclo[5,4,0] undec-7-ene as a base, as disclosed in International Application PCT/US00/16396, filed Jun. 14, 2000, Melanocortin Metallopeptide Constructs, Combinatorial Libraries and Applications, incorporated by reference herein. Affinities of compounds were measured using membranes from HEK-293 cells containing cloned human melanocortin receptor subtypes 3, 4 and 5. MC1-R membranes were isolated from B16—F10 mouse melanoma cells. The assay tube also contained a chosen concentration of the test peptide of this invention, complexed to a rhenium metal ion as indicated, for determining its efficacy in inhibiting the binding of ^125I-NDP-α-MSH to its receptor. Non-specific binding was measured by complete inhibition of binding of ^125I-NDP-α-MSH in the assay with the presence of 1 μM α-MSH. 100% specific binding was defined as the difference in radioactivity (cpm) bound to cell membranes in the absence and presence of 1 μM α-MSH. The cpm obtained in presence of test compounds were normalized with respect to 100% specific binding to determine the percent inhibition of ^125I-NDP-α-MSH binding.
(§2) Peptide sequences set forth in Table 6 were prepared using conventional synthetic means. The resulting sequences were rhenium-complexed to form metallopeptides, with the metallopeptides complexed with rhenium using the rhenium transfer agent ReOCl3(PPh3)2 in the presence of 1,8-Diazabicyclo[5,4,0] undec-7-ene as a base. Percent inhibition was determined as in Example 1 using the Re-complexed metallopeptides, using the same methods as described therein. All measures are means of triplicate determinations.

[2] = molecular target: T2, MC1-R (Mus musculus, UniProt Q01727); test: Competitive binding assay: inhibition of 125I-NDP-α-MSH binding to membranes from B16-F10 mouse melanoma cells; settings: Table 6, mean of triplicate
T2 construct: MC1-R membranes were isolated from B16—F10 mouse melanoma cells; endogenous in cells; host or cells: B16-F10 mouse melanoma cells
Method: as §1, §2

[3] = molecular target: T3, MC4-R (Homo sapiens, UniProt P32245); test: Competitive binding assay: inhibition of 125I-NDP-α-MSH binding to HEK-293 membranes with cloned human receptor subtype 4; settings: Table 6, mean of triplicate
T3 construct: expressed in transfected cells; host or cells: HEK-293
Method: as §1, §2

T2 sequence (Q01727 whole entry): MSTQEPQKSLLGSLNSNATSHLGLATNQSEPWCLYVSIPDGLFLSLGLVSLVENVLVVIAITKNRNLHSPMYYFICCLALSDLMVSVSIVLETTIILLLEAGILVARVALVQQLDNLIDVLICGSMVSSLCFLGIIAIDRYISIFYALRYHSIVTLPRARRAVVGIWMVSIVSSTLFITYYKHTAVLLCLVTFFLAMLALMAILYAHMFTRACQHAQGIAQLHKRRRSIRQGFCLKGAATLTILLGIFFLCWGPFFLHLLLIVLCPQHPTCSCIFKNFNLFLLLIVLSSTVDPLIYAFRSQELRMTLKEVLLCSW
T3 sequence (P32245 whole entry): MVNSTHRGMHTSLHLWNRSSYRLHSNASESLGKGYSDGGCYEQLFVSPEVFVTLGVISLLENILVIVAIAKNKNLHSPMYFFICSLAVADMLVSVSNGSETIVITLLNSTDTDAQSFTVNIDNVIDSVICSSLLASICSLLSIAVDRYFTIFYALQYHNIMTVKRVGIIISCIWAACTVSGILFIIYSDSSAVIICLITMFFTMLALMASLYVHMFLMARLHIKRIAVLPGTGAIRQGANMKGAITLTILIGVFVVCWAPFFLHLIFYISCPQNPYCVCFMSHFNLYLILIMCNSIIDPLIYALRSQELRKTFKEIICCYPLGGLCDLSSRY
T1 sequence (P41968 whole entry): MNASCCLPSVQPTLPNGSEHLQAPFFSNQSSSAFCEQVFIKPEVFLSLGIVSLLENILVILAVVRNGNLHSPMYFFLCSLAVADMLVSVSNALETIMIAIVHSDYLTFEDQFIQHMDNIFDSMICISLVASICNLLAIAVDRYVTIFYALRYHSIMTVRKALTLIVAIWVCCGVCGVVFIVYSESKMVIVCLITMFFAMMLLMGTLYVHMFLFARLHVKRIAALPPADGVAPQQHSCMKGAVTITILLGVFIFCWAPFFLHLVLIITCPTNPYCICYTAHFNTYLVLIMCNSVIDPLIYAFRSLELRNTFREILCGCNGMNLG

| Substance | % Inhibition of Binding MC1-R ([2]; 1 μM) [%] | % Inhibition of Binding hMC4-R ([3]; 1 μM) [%] | other results |
| --- | --- | --- | --- |
| Ac-[Nle]AH[dBip]RCW-NH2 | 72 | – | % Inhibition of Binding hMC2-R [1]: 100% |
| (N-PhEt)-D-Phe(2′-Cl)-Lys-Nal 2′-Cys-NH2 | – | – | % Inhibition of Binding hMC4-R ([3]; 0.1 μM): 80%; % Inhibition of Binding MC1-R ([2]; 0.1 μM): 64% |
| Heptanoyl-Ser(Bzl)-D-Nal 2′-Gly-Trp-Cys-Lys-NH2 | 27 | 0 | – |
| [dF]R[dW]CW-NH2 | 37 | 32 | – |
| 3′-Br Phenyl acetyl-Arg-Ala-D-Phe(4′-Me)-Cys-Trp-NH2 | 25 | 96 | – |
| Heptanoyl-Ser(Bzl)-D-Phe(4′-Cl)-Arg-Tyr(3′-l)-Cys-NH2 | – | – | % Inhibition of Binding hMC4-R ([3]; 0.1 μM): 92%; % Inhibition of Binding MC1-R ([2]; 0.1 μM): 12% |
| Heptanoyl-Ser(Bzl)-D-Phe(4′-Cl)-Arg-Tyr(3′,5′-Di-l)-Cys-NH2 | – | – | % Inhibition of Binding hMC4-R ([3]; 0.1 μM): 85%; % Inhibition of Binding MC1-R ([2]; 0.1 μM): 10% |
| Heptanoyl-Ser(Bzl)-D-Phe(4′-Cl)-Arg-Tyr(Bzl)-Cys-NH2 | 16 | 85 | – |
| Heptanoyl-Ser(Bzl)-D-Phe(4′-Cl)-Arg-Nal 2′-Cys-Lys-NH2 | – | – | % Inhibition of Binding hMC4-R ([3]; 0.1 μM): 97%; % Inhibition of Binding MC1-R ([2]; 0.1 μM): 78% |
| 2′-Naphthyl acetyl-Arg-Arg-D-Phe(4′-Cl)-Cys-Trp-NH2 | 93 | 96 | – |
| D-Phe(4′-Cl)-Arg-Nal 2′-Cys-Lys-NH2 | – | – | % Inhibition of Binding hMC4-R ([3]; 0.01 μM): 73%; % Inhibition of Binding MC1-R ([2]; 0.01 μM): 43% |
| Heptanoyl-R[dF]GWCK-NH2 | 92 | 32 | – |
| Heptanoyl-Ser(Bzl)-D-Phe(4′-Cl)-Arg-Nal 1′-Cys-NH2 | – | – | % Inhibition of Binding hMC4-R ([3]; 0.1 μM): 47%; % Inhibition of Binding MC1-R ([2]; 0.1 μM): 3% |

The next lines start with results.

| % Inhibition of Binding MC1-R ([2]; 1 μM) [%] | % Inhibition of Binding hMC4-R ([3]; 1 μM) [%] | Substance | other results |
| --- | --- | --- | --- |
| 65 | – | Heptanoyl-Ser(Bzl)-D-Phe(4′-Cl)-Arg-Bip-Cys-NH2 | % Inhibition of Binding hMC2-R [1]: 5% |
| 23 | 46 | (R)-4-amino-5-phenyl pentanoyl-Lys-Ala-D-Phe(4′-Me)-Cys-Trp-NH2 | – |
| 23 | 36 | Ac-Nle-Arg-Ala-D-Nal 2′-Cys-Lys-NH2 | – |
| 60 | 41 | PhCO-D-Phe(2′-Cl)-Lys-Nal 2′-Cys-NH2 | – |
| 78 | 90 | 2′-Naphthyl acetyl-Arg-Arg-D-Phe(3′-Cl)-Cys-Trp-NH2 | – |
| 19 | 0 | Heptanoyl-Ser(Bzl)-D-Phe(4′-Cl)-Arg-Tyr(2′,6′-diCl-Bzl)-Cys-NH2 | – |
| 65 | 69 | 3′-Br-Phenylacetyl-Lys-Lys-D-Phe(4′-CH3)Cys-Lys-NH2 | – |
| 15 | 3 | Ac-WA[dF][dC]RW-NH2 | – |
| 77 | 92 | 1′-Naphthyl acetyl-Arg-Arg-D-Phe(3′-Cl)-Cys-Trp-NH2 | – |
| 37 | 34 | FR[dW]CW-NH2 | – |
| 72 | 100 | Heptanoyl-Ser(Bzl)-D-Nal 2′-Arg-Trp-Cys-Lys-NH2 | – |
| 27 | 82 | Heptanoyl-Ser(Bzl)-D-Phe(2′-Br)-Lys-Nal 2′-Cys-NH2 | – |
| 85 | 99 | 3′-Cl Phenyl acetyl-Arg-Arg-D-Phe(4′-CF3)-Cys-Trp-NH2 | – |
| 53 | 64 | Phe-Arg-Trp-Cys-Lys-NH2 (FRWCK-NH2; not fully specified; printed as Phe-Arg-Trp-Cys-Lys-NH2) | – |
| 15 | 18 | Heptanoyl-Ala-Nal 2′-Cys-Trp-NH2 (Heptanoyl-A[2Nal]CW-NH2; also: metallopeptide, metal not given here) | – |
